Data as given in US10610517B2, “Compositions and methods for treating neoplastic diseases” (Celgene International II Sàrl, priority 2004, dated 2020).

How the values were obtained:
[1] = target: proteasome β-5, β-1, β-2 subunits in MM.1S cells (Homo sapiens, UniProt P28072+P28074+Q99436); type: cell-based
Experimental: In vivo determination of proteasome activity was conducted using a competition experiment with Dansyl-Ahx3L3VS, which covalently modifies all active proteasome subunits. This inhibitor contains a dansyl sulfonamide hexanoyl hapten that can be visualized by immunoblotting using antibodies against the dansyl moiety. […] Cells were lysed by incubating them for 30 mins in NP-40 lysis buffer (50 mM Tris-HCl pH 8.0, 150 mM NaCl, 1% NP-40), followed by 5 min. centrifugation to remove membrane fractions, nuclei, and cell debris. […] Blots were developed by enhanced chemiluminescence (Western Lightning, Perkin-Elmer).

[2] = tested on: MM.1S, MM.1R, RPMI-8226, Dox-40, OPM2 and U266 cells; assay: MTT cell viability of MM cell lines; type: cell-based, human; settings: 24 h, range over all six cell lines; FIG. 5A
Description: Results are mean±S.D from three independent experiments (P<0.005; n=3 for all Cell lines).

MM.1S cells = assay: MTT viability of MM.1S cells with or without rhIL-6 or rhIGF-I; type: cell-based, human
Description: Adhesion of MM cells to BMSCs induces IL-6 and IGF-I secretion from BMSCs, which not only regulates the growth of MM cells, but also protects against chemotherapy. See Hardin, J., MacLeod, S., Grigorieva, I., Chang, R., Barlogie, B., Xiao, H. & Epstein, J. (1994) Blood 84, 3063-70 and Chauhan, D., Kharbanda, S., Ogata, A., Urashima, M., Teoh, G., Robertson, M., Kufe, D. W. & Anderson, K. C. […] Thus, whether rhIL-6 or rhIGF-I inhibits apoptosis in MM cells induced by the compound of Formula (II) (X=Cl) was evaluated. […] At 24 h cells were harvested and viability analyzed by MTT assays. […] Median viability was 51±2.1% after treatment with Dex and 92±5.5% for Dex+rhIL-6 (P=0.05, as determined by one-sided Wilcoxon rank-sum test). Results are mean±SD of three independent experiments. […] In contrast and as in other studies, both IL-6 and IGF-I block Dex-induced decreased MM.1S cell viability. See Chauhan, D., Hideshima, T. & Anderson, K. C. (2003) Int J Hematol 78, 114-20 and Mitsiades, C. S., Mitsiades, N., Poulaki, V., Schlossman, R., Akiyama, M., Chauhan, D., Hideshima, T., Treon, S. P., Munshi, N. C., Richardson, P. G. & Anderson, K. C.

MM.1S MM cells = assay: VEGF-induced migration of MM cells; type: cell-based, human; settings: 7 or 10 nM; FIG. 8
Experimental: VEGF is elevated in the bone marrow microenvironment and triggers migration, growth, and angiogenesis in MM cells. See Podar, K., Tai, Y. T., Lin, B. K., Narsimhan, R. P., Sattler, M., Kijima, T., Salgia, R., Gupta, D., Chauhan, D. & Anderson, K. C. […] Thus, whether the compound of formula (II) (X=Cl) alters VEGF-induced migration of MM cells was evaluated. VEGF induced migration was examined in the presence or absence of the compound (7 or 10 nM). Cell migration was assayed as described previously in Podar, K., Tai, Y. T., Davies, F. E., Lentzsch, S., Sattler, M., Hideshima, T., Lin, B. K., Gupta, D., Shima, Y., Chauhan, D., Mitsiades, C., Raje, N., Richardson, P. & Anderson, K. C. […] These findings indicate that the compound may negatively regulate both homing of MM cells to the bone marrow and their egress into the peripheral blood.

[3] = tested on: Bcl2-transfected MM.1S cells; assay: MTT viability of Bcl2-transfected MM.1S cells
Experimental: Bcl2 confers resistance to conventional therapies in cancer cells, including MM. […] Bcl2 can modestly attenuate Bortezomib-induced apoptosis. Thus, whether ectopic expression of Bcl2 in MM.1S cells affects responsiveness to the compound of formula (II) (X=Cl) was evaluated. MM.1S cells were stably transfected with Bcl2 construct and analyzed for alterations in cell viability using an MTT assay. […] Results are mean±SD of three independent experiments.
During apoptosis Bax neutralizes the antiapoptotic function of Bcl-2, thereby facilitating the cyto-c release and caspase-9 activation. Bcl-2 also confers drug resistance in cancer cells, including MM, and provides partial protection against Bortezomib-induced killing. Therefore, whether ectopic expression of Bcl-2 in MM.1S cells affects the ability of the compound of formula (II) or Bortezomib to trigger cytotoxicity and postmitochondrial apoptotic signaling in MM cells was evaluated.

Bax = assay: Immunoblot of Bax in mitochondrial protein extracts; type: cell-based, human; settings: MM.1S cells; FIG. 12E
Experimental: Immunoblot analysis was performed using antibodies to cytochrome-c, Smac, Caspase-8, -9, or -3 (Cell Signaling, Beverly, Mass.), tubulin (Sigma, St. Louis, Mo.), PARP, Hsp60, or Bax (BD Bioscience Pharmingen, San Diego, Calif.). Blots were developed by enhanced chemiluminesence (ECL; Amersham, Arlington Heights, Ill.).
Previous studies have established that Bax induces mitochondrial apoptotic pathway. See Wei, M. C., Zong, W. X., Cheng, E. H., Lindsten, T., Panoutsakopoulou, V., Ross, A. J., Roth, K. A., MacGregor, G. R., Thompson, C. B. & Korsmeyer, S. J. (2001) Science 292, 727-30 and Lei, K., Nimnual, A., Zong, W. X., Kennedy, N. J., Flavell, R. A., Thompson, C. […] Thus, whether MM cell apoptosis induced by the compound of formula (II) (X=Cl) correlates with alterations in Bax was evaluated. […] Blots are representatives of three independent experiments.

[4] = tested on: purified (CD138-positive) patient MM cells; assay: DNA fragmentation apoptosis assay on purified patient MM cells

CC12OC(=O)C1(C(O)C1C=CCCC1)NC(=O)C2CCCl (stereo not drawn) [compound of formula (II) (X=Cl)]
dansylAhx3L3VS-labeling of the β-5 subunits ([1]; 7 nM, 30 mins, 1 h or 3 h, FIG. 4): decreases the dansylAhx3L3VS-labeling of the β-5 subunits | concentration decreasing dansylAhx3L3VS-labeling of the β-1 subunits ([1]; MM.1S cells): 1 nM | concentration decreasing dansylAhx3L3VS-labeling of the β-2 subunits ([1]; MM.1S cells): 20 nM | IC50 [2]: 7 to 24 nM | median cell viability (MM.1S cells; agent + rhIL-6 (10 ng/ml), 24 h (compound 7 nM; Dex 0.5 μM)): 51.2±3.2% | median cell viability (MM.1S cells; agent alone, 24 h (compound 7 nM; Dex 0.5 μM)): 47±2.3% | median cell viability (MM.1S cells; compound 7 nM + rhIGF-I (50 ng/ml), 24 h): 50.3%±2.0 | VEGF-induced migration (MM.1S MM cells): decreases VEGF-induced migration | increased survival of Bcl-2 transfectants ([3]; Bcl-2- versus vector-transfected, FIG. 14A): 11% | viability ([3]; Bcl-2-transfected cells, FIG. 14A): 50%±2.6 | less cell death in Bcl2-transfected cells compared to empty vector-transfected MM.1S cells ([3]; FIG. 9): 15±1.1% | effect of Bcl-2 overexpression on induced caspase-9 cleavage ([3]; FIG. 14B): minimally affected | cell viability of Bcl2-transfected MM.1S cells ([3]; dose-dependent, FIG. 9): significantly decreases cell viability | viability ([3]; vector-transfected cells, FIG. 14A): 39%±1.5 | Bax levels in mitochondria (Bax): little, if any increase in Bax levels in mitochondria | apoptosis by DNA fragmentation assay ([4]; 10 nM, 24 h, nine relapsed MM patients, FIG. 5B): significant apoptosis | increase in apoptosis ([4]; CD138+ cells of two patients, 20 nM, 24 h, FIG. 6): 10-12 fold | IC50 for MM cells ([4]; stated in words): within the nanomolar concentration
